Measurements from paper PMC7138307 (PLoS ONE, 2020).
Entries after “also recorded” stand apart in the source; their conditions may differ.

Legend:
[1] = tested on: TTBK1, TTBK2; assay: Ex vivo KiNativ ATP/ADP probe competition in mouse cortical brain lysates; format: binding; conditions: DIKPSNFAMGR; Lys2; ADP probe
[2] = molecular target: T1, FER (Mus musculus, UniProt P70451); assay: as above; format: binding
T1 construct: from tissue; host or cells: mouse cortical brain lysate

[3] = tested on: CK1d, CK1e; assay: as above; format: binding; conditions: DVKPDNFLMGLGKK; Lys2; ATP probe
[4] = tested on: tau phosphorylation; assay: Isoflurane induced hypothermia tau phosphorylation in C57Bl/6 mice (western blot of cortex); format: in vivo, mouse
Text: Under basal conditions, tau phosphorylation is tightly regulated by opposing kinase and phosphatase activities. In mice, isoflurane induced hypothermia causes a dramatic increase in tau phosphorylation through the temperature dependent inhibition of PP2A [40]. In the current experiment, we used isoflurane induced hypothermia in C57Bl/6 mice to increase tau phosphorylation in order to test the effects of TTBK1 inhibition. By using wild-type mice we ensured that both the levels of tau and tau kinases were at endogenous levels. […] Based on our in vitro potency assays and pharmacokinetic parameters, the highest dose used (75 mg/kg) was projected to achieve an IC80 of TTBK1 inhibition for the one hour of hypothermia treatment (S3 Fig). […] This further confirms that S422, a site implicated in the early stages of neurofibrillary tangle formation in disease, is likely solely phosphorylated by TTBK1 in the brain.
Fig 6 Acute TTBK1 inhibition reduces tau phosphorylation at disease relevant sites in vivo. […] Phosphorylation signal was normalized to the level of total tau in each sample. Data is represented as the mean +/- SEM. For each phospho-epitope, treatment significance was determined first by one-way ANOVA between all groups; For each dose group, Tukey’s comparison was used to determine significance versus the Vehicle treated control. (B) Correlation within each brain sample between the level of tau phosphorylation at S422 and the measured concentration of free drug (R^2 = 0.4254; p = 0.0569).
Samples were lysed in Pierce RIPA lysis and extraction buffer (Thermo Fisher Scientific, Waltham, MA) supplemented with 1% Halt protease and phosphatase inhibitor cocktail (Thermo Fisher Scientific, Waltham, MA) and centrifuged at 14000 x g for 20 min at 4°C to clear the lysate. Protein concentrations were determined using the Direct Detect Infrared Spectrometer (EMD Millipore Corp., Burlington, MA) and 10μg of each sample was denatured in 6X SDS sample buffer (Boston Bioproducts, Ashland, MA) for 7 minutes at 90°C. Proteins were loaded into a Criterion 7.5% tris-glycine gel (Bio-Rad, Hercules, CA) and separated by SDS-PAGE at 120V for 120 minutes. The gel was transferred to an IBlot2 nitrocellulose membrane (Invitrogen, Carlsbad, CA), blocked with TBST blocking buffer (Li-cor Biosciences, Lincoln, NE) for 1 hour, and washed three times with TBST. The membrane was probed with primary antibodies (1:1000 dilution) in antibody dilution buffer (1:1 TBST blocking buffer and 1X TBST) overnight at 4°C. The following antibodies were used for immunoblotting: TTBK1 (Cat# PA5-20686, Invitrogen, Carlsbad, CA), Tau-5 (Cat# ab80579, Abcam, Cambridge, UK), phospho-Tau S422 (Cat# ab79415, Abcam, Cambridge, UK), S198 (Cat# ab79540, Abcam, Cambridge, UK), AT8 S202/T205 (Cat# MN1020, Invitrogen, Carlsbad, CA), S214 (Cat# ab170892, Abcam, Cambridge, UK), AT180 T231 (Cat# MN1040, Invitrogen, Carlsbad, CA), S262 (Cat# ab131354, Abcam, Cambridge, UK), S356 (Cat# ab75603, Abcam, Cambridge, UK), S396 (Cat# ab109390, Abcam, Cambridge, UK), GAPDH (Cat# 5174S, Cell Signaling Technology, Danvers, MA), and β-actin (Cat# 926–42212, Li-cor Biosciences, Lincoln, NE). The blot was then washed in triplicate with TBST and incubated for 1 hour with secondary antibody (1:10,000 dilution of IRDye 800 anti-mouse IgG and IRDye 680 anti-rabbit IgG, Li-cor Biosciences, Lincoln, NE) in antibody dilution buffer. After a final triplicate wash with TBST, the blot was visualized using the Odyssey CLx imaging system (Li-cor Biosciences, Lincoln, NE).
Seven-week-old male C576Bl/6 mice were used for all hypothermia experiments (Charles River Laboratories, Wilmington, MA). Hypothermia was induced by exposure to vaporized isoflurane in an anesthetic induction chamber attached to a V-1 Tabletop Anesthesia System (VetEquip, Inc., Livermore, CA). The mice remained in the chamber for 60 minutes with a constant isoflurane concentration of 2%. […]

T1 sequence (P70451 whole entry): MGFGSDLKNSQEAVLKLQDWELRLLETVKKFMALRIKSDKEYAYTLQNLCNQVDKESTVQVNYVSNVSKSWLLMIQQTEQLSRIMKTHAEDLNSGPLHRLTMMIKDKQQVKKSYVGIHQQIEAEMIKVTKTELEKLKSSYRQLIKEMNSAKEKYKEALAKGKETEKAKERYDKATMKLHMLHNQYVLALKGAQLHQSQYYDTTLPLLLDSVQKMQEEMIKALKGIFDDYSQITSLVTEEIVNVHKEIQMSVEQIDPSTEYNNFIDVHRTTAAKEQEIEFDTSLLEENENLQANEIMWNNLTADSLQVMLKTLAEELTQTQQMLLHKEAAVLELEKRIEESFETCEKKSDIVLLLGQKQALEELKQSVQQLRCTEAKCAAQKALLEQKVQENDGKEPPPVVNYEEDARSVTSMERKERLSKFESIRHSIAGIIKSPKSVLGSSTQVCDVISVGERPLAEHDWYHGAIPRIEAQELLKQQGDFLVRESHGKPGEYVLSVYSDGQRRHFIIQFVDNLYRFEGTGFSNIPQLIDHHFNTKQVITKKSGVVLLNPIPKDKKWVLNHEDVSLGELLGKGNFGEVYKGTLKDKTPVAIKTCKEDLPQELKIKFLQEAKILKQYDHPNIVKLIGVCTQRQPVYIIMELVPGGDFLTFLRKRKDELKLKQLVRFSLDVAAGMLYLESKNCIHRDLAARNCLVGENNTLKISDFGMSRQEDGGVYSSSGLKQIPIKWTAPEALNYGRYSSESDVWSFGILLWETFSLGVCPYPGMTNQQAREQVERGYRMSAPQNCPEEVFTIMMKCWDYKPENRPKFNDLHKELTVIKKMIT

**Q.** `CCC(C)(O)C#Cc1cc2c(ccn2-c2ccnc(N)n2)cn1` (stereo not drawn) [BIIB-TTBK1i] was tested. Which “Percent Inhibition at 1μM” value [1] did it give?
**A.** Its value is 95.8%.

**Q.** What about the “Percent Inhibition at 1μM” value ([2]; QEDGGVYSSSGLKQIPIK, Activation Loop, ADP probe) of the same molecule?
**A.** Its value is 66.7%.

**Q.** What about the “Percent Inhibition at 1μM” value ([2]; QEDGGVYSSSGLKQIPIK, Protein Kinase Domain, ATP probe) of the same molecule?
**A.** Its value is 69.4%.

**Q.** What about the “Percent Inhibition at 1μM” value ([2]; TPVAIKTCKEDLPQELK, Lys1, ADP probe) of the same molecule?
**A.** The value was 79.1%.

**Q.** What about the “Percent Inhibition at 1μM” value ([2]; TPVAIKTCKEDLPQELK, Lys1, ATP probe) of the same molecule?
**A.** Its value is 74.9%.

**Q.** What about the “Percent Inhibition at 1μM” value [3] of the same molecule?
**A.** Its value is 55.5%.

**Q.** And the “average reduction in tau phosphorylation at S422” value ([4]; 25mg/kg I.P., one hour, p = 0.0213 vs Vehicle)?
**A.** Its value is 60%.

**Q.** What about the “hypothermia induced tau phosphorylation at S422” value ([4]; 50mg/kg I.P., one hour, p = 0.0005 vs Vehicle) of the same molecule?
**A.** The value was “completely restored to basal levels; also recorded: complete reversal”.

**Q.** What about the “tau phosphorylation at AT180 (Thr231)” value ([4]; 75mg/kg I.P. p = 0.0002 vs Vehicle (50mg/kg p = 0.0005; 25mg/kg p = 0.0571)) of the same molecule?
**A.** The value was “significant decrease”.

**Q.** What about the “tau phosphorylation at S396” value ([4]; 75mg/kg I.P. p = 0.0002 vs Vehicle (50mg/kg p = 0.011; 25mg/kg p = 0.8492)) of the same molecule?
**A.** The value was “significant decrease”.

**Q.** What about the “tau phosphorylation at AT8 (S202/T205)” value ([4]; 75mg/kg I.P. p = 0.0066 vs Vehicle (50mg/kg p = 0.5391; 25mg/kg p>0.999)) of the same molecule?
**A.** Its value is “significant decrease”.

**Q.** And the “hypothermia induced tau phosphorylation at S422” value ([4]; 75mg/kg I.P., one hour, p = 0.0007 vs Vehicle)?
**A.** The value was “completely restored to basal levels; also recorded: significant decrease”.
